Read-outs that look alike come from different tables or passages of the source.
Legend:
[1] = test system: primary orbital fibroblasts; assay: 15d-PGJ2 on TGF-β1 induced HA and HAS mRNA; format: cell-based, human; conditions: 15d-PGJ2 0.5, 1.0 or 2.0 μM
Method: Primary orbital fibroblasts were isolated from Graves' disease patients undergoing orbital decompression surgery. The cells were grown in RPMI 1640 media containing 10% FBS, and incubated for 24 hours either with or without 2 ng/ml TGF-β1, and 0.5 μM, 1.0 μM, or 2.0 μM 15d-PGJ2. The amount of HA in the cell culture supernatant and pericellular extraction was measured by ELISA as in the preceding Examples. […] While TGF-β normally induces both HAST and HAS2 mRNA expression, TGF-β induced HA secretion was inhibited by 15d-PGJ2 (FIG. 18).

[2] = test system: HMC-1 cells; assay: Measurement of PGD2 produced by mast cells (PGD2-MOX EIA); format: cell-based, human; conditions: 10 μM A23187, 30 minutes, compared to untreated
Method: HMC-1 cells (1×10^6/well) were seeded into 6-well plates and cultured in IMDM medium with 5% FBS in the absence or presence of HQL-79 (H-PGDS inhibitor, 100 μM) at 37° C. for 60 minutes. The cells were then washed and resuspended in RPMI 1640 medium with 0.5% FBS. After 2 hours incubation, the cells were stimulated with 10 μM calcium ionophore A23187 for 30 minutes. The culture media were collected and PGD2 in the supernatants was quantified by PGD2-MOX EIA kits (Cayman Chemical).

[3] = test system: human orbital fibroblasts; assay: qRT-PCR of HAS mRNA after PGD2 or BW245C; format: cell-based; conditions: BW245C 10 μM
Method: RNA was isolated from orbital fibroblasts or T cells using an RNeasy Mini kit (Qiagen). RNA was reverse transcribed to cDNA using iScript cDNA synthesis kit (Bio-Rad) and diluted 5-fold in RNase-free H2O. Forward and reverse primers for each gene are shown in Table I. RT-PCR: The PCR reaction was performed using Qiagen Fast Cycling PCR kit for 30 cycles in a Bio-Rad thermal cycler. The PCR product was visualized on a 5% acrylamide gel stained with ethidium bromide. Amplifications without reverse transcriptase were carried out as negative controls. qRT-PCR: qRT-PCR was performed in a Bio-Rad iCycler containing B-R SYBR Green SuperMix for IQ (Quanta Biosciences, Gaithersburg, Md.). Efficiency of the amplification was determined to be >90%.
Amplification of 7S ribosomal RNA was carried out for each cDNA (in triplicate) for normalization. Threshold cycle number (Ct) of amplification in each sample was determined by Bio-Rad software and the relative mRNA abundance was calculated as the Ct for amplification of a gene-specific cDNA minus average Ct for 7S, expressed as a power of 2; i.e., 2^ΔCt.

[4] = test system: human orbital fibroblasts; assay: HA ELISA of culture medium of orbital fibroblasts treated with prostaglandins or drugs; format: cell-based; conditions: for HA levels after selective DP agonist: compared to untreated fibroblasts; for basal HA levels: 100 nM antagonist alone, compared with untreated; for PGD2- and PGJ2-induced HA production: 100 nM antagonist pretreatment 1 hour, PGD2 5 μM or PGJ2 2 μM
Description: Orbital fibroblasts: Primary orbital fibroblasts were isolated from TED patients undergoing orbital decompression surgery. The protocols for orbital biopsy and blood sample, described below, were approved by the Internal Review Board and informed, written consent was obtained from all patients. […] Fibroblasts were characterized by their adherent morphology, expression of vimentin and types I and III collagen and absence of CD45, factor VIII or cytokeratin. Fibroblasts were used at the earliest passage possible (between passages 4 to 10). Human T cells: Lymphocytes were isolated from 60 ml of peripheral blood obtained during orbital decompression surgery. Whole blood was separated over a Ficoll-Paque Plus Gradient (Amersham Biosciences, Piscataway, N.J.) to obtain peripheral blood mononuclear cells. T cells were enriched using CD3/CD28 T cell Expander beads (Invitogen). […] After that, 50 U/ml of recombinant interleukin-2 (rIL-2) was added to the culture and incubated for another 2-3 days. On day 5, cells were diluted to a concentration of 0.5×10^6 cells/ml in medium containing 50 U/ml rIL-2 and incubated for an additional 3-7 days. Cellular purity was assessed using an anti-CD3-PE antibody (BD Biosciences, San Jose, Calif.) and analyzed on a FACSCalibur flow cytometer (BD Biosciences).
Aliquots of culture medium were removed at indicated time points, centrifuged (5 min, 8,000×g at 4° C.) and HA levels quantified by enzyme-linked immunosorbent assay (ELISA) according to the manufacturer's protocol (R&D Systems). Briefly, samples were incubated in HA-binding protein (HABP)-coated microwells, allowing HA in samples to react with the immobilized HABP. After the removal of unbound molecules by washing, biotinylated-HABP was added to the microwells. Following a second wash, streptavidin-conjugated to horseradish peroxidase was added. After the last wash, the chromogenic substrate was added and HA levels were determined using a Varioskan Flash plate reader (Thermo Fisher Scientific, Milford, Mass.).

[5] = test system: orbital fibroblasts; assay: Measurement of intracellular cAMP (TR-FRET immunoassay); format: cell-based, human; conditions: PGD2 5 μM, BW245C 10 μM, up to 60 minutes
Method: cAMP levels were quantified using a time-resolved fluorescence resonance energy transfer (TR-FRET) immunoassay from Perkin Elmer (Waltham, Mass.) according to the manufacturer's protocol. Briefly, orbital fibroblasts were detached with a non-enzymatic cell dissociation solution (Versene, Invitrogen) and re-suspended in Stimulation Buffer (pH 7.4; 1×HBSS buffer containing 5 mmol/L HEPES buffer and 0.01%-0.1% BSA) containing 0.5 mM IBMX and labeled with the Alexa Fluor® 647-labeled anti-cAMP antibody. Finally, the cells were incubated with drugs at the indicated times. Following addition of the detection buffer, the amount of cAMP signal was measured.

[6] = test system: human orbital fibroblasts; conditions: previously reported (Feldon et al. 2006); cited from earlier work
[7] = test system: human orbital fibroblasts; assay: Quantitation of secreted, pericellular and intracellular HA by ELISA, TGF-β1 treatment; format: cell-based; conditions: for inhibition at 10 µM: Homo sapiens, Fibroblast, 2 ng/ml TGF-β1, 24 hours; for cell number after treatment: cells counted in the FIG. 10 experiment
Method: Confluent monolayers of orbital fibroblasts were serum starved in 0.5% FBS RPMI-1640 medium for three days and pretreated with different concentrations of Pio or Rosi for 1 hour and then treated with or without 2 ng/ml TGF-β1 for 24 hours. After treatments, an aliquot of culture medium (secreted HA) was removed and centrifuged at 8,000×g at 4° C. for 5 minutes and the supernatant was saved for later analysis. The cells were washed twice with PBS and treated with 0.25% trypsin-EDTA solution (GIBCO, Invitrogen) at 37° C. for 5 minutes, the reaction was stopped by addition of culture medium and cell number was determined using a hemocytometer. The cells were then centrifuged and the supernatant was collected and incubated at 100° C. for 10 minutes to inactivate trypsin activity. This supernatant was saved for pericellular HA detection. The cell pellet was washed with PBS once and digested with 120 μg/ml proteinase K in 0.1% SDS/0.1 M Tris-HCl (pH 7.6) at 37° C. for 1 hour, and proteinase K was inactivated by incubation at 100° C. for 10 min. The cell lysate was centrifuged and supernatant analyzed for intracellular HA.
The amount of HA in each extract (secreted HA, pericellular HA and intracellular HA) was measured by ELISA based on the specific interaction of HA with HA binding protein (HABP). The HA detection kit was purchased from R&D system (Minneapolis, Minn.). Briefly, diluted samples were incubated in HABP-coated microwells, allowing HA present in samples to react with the immobilized HABP. After extensive washing, biotinylated HABP was added to the microwells to form complexes with bound HA. Following another round of washing, streptavidin conjugated horseradish peroxidase was added. After a brief incubation period and washing, chromogenic substrate was added and HA levels were determined using a Varioskan Flash plate reader (Thermo Fisher Scientific, Milford, Mass.). A fraction of the samples were pretreated with Streptomyces hyaluronidase (2 U/ml at 37° C. for 2 hour) before subjected to the ELISA assay as a negative control. Furthermore, an additional 50 ng/ml (final concentration) of free soluble HA was added to a fraction of the cell lysate samples to confirm that there are no inhibitory factors present and that the assays show the expected additivity when a known amount of exogenous HA is included.

[8] = test system: human orbital fibroblasts; assay: qRT-PCR of HAS mRNA after TGF-β1 with or without Pio or Rosi; format: cell-based; conditions: 10 μM, 6 hours
Description: RNA was isolated from orbital fibroblast strains using the RNeasy Mini kit according to the manufacturer's protocol (Qiagen, Valencia, Calif.) and reverse transcripted to cDNA using iScript cDNA synthesis kit (Bio-Rad, Hercules, Calif.). Primers for human HAS1, 2, 3 and 7S as well as qRT-PCR method to detect relative abundance of mRNA are identified supra. Primers for human PPARγ1 (NM138711) and PPARγ 2 (NM015869) mRNA were 5′-AAAGAAGCCGA-CACTAAACC-3′ (SEQ ID NO:3) (sense), 5′-CTTCCATTACGG-AGAGATCC-3′ (SEQ ID NO:4) (antisense) and, 5′-GCGATTC-CTTCACTGATAC-3′ (SEQ ID NO:5) (sense), 5′-CTTCCATT-ACGGAGAGATCC-3′ (SEQ ID NO:6) (antisense), respectively.

[9] = test system: human orbital fibroblasts; assay: Cell viability assay (XTT); format: cell-based; conditions: 24 hours, with or without TGF-β1
Method: Cell viability was assayed using the colorimetric XTT (2,3-bis-(2-methoxy-4-nitro-5-sulfophenyl)-2H-tetrazolium-5-carboxanilide) assay kit (Roche, Germany). Briefly, orbital fibroblasts were seeded in a 96-well plate and cultured with various treatments. Twenty hours after treatment, 50 μl of XTT labeling mixture was added and cells were incubated at 37° C. for 4 hours. The amount of cleaved XTT product generated by metabolically active cells was assayed by measuring absorbance using an ELISA plate reader at 480 nm with a reference wavelength at 650 nm. Cell viability results were also confirmed by Trypan blue staining.

CCCCC/C=C/C=C1/C(=O)C=C[C@@H]1C/C=C\CCCC(=O)O [15d-PGJ2, 15-deoxy-Δ12,14-Prostaglandin J2]
TGF-β induced HAS2 mRNA expression ([1]; 2 ng/ml TGF-β1): inhibited TGF-β induced HAS2 mRNA expression | TGF-β induced HAST mRNA expression ([1]; 2 ng/ml TGF-β1): enhanced TGF-β induced HAST mRNA expression | TGF-β induced HA secretion ([1]; 2 ng/ml TGF-β1, 24 hours): inhibited

CNc1ccc2oc(C[C@H]3O[C@@]4(CC[C@H]3C)O[C@H]([C@H](C)C(=O)c3ccc[nH]3)[C@H](C)C[C@H]4C)nc2c1C(=O)O [A23187]
PGD2 production on activation [2]: significantly increased PGD2 production

O=C(O)CCCCCCC1C(=O)NC(=O)N1CCC(O)C1CCCCC1 (stereo not drawn) [BW245C]
HAS3 mRNA increase ([3]; 6 hours): 4.8±0.06 | HAS1 mRNA fold increase ([3]; two hours, compared to vehicle): 329±128 fold | HAS2 mRNA fold increase ([3]; two hours, compared to vehicle): 17±0.14 fold | HA levels after selective DP agonist [4]: dose-dependently increased HA levels | intracellular cAMP production [5]: significantly increased intracellular cAMP production within 15 to 30 minutes

CCCCCC(=O)CCC1C(=O)CC(O)C1C/C=C\CCCC(=O)O (stereo not drawn) [DK-PGD2, 13,14-dihydro-15-keto-PGD2]
HA levels after selective DP agonist [4]: did not significantly increase HA levels

O=C(Nc1ccccc1)c1cc([N+](=O)[O-])ccc1Cl [GW9662]
PPARγ ligand-driven adipogenesis [6]: completely inhibited | effect of GW9662 on inhibition of TGF-β1 induced HA synthesis by Pio or Rosi ([7]; 1 μM GW9662 pretreatment 1 hour, 10 μM Pio or Rosi, 24 hours): did not significantly reduce the ability of either Pio or Rosi to inhibit TGF-β1 induced HA synthesis

CS(=O)(=O)c1cc(F)cc2c3c(n(Cc4ccc(Cl)cc4)c12)[C@@H](CC(=O)O)CC3 [MK-0524]
basal HA levels [4]: neither MK-0524 (MK) nor Ramatroban (RAM) influenced basal HA levels | PGD2- and PGJ2-induced HA production ([4]; 18 hours): completely blocked the ability of both PGD2 and PGJ2 to induce HA production

CCCCC[C@H](O)/C=C/[C@H]1C(=O)C=C[C@@H]1C/C=C\CCCC(=O)O [PGJ2]
adipogenesis in human orbital fibroblasts [6]: induce adipogenesis | concentration yielding the largest induction of HA ([4]; 18 hours, strains OF1 and OF2): 2 µM | HA synthesis (HA ELISA) ([4]; increasing concentrations, 18 hours, strains OF1 and OF2): significantly increased HA synthesis by both fibroblast strains in a dose-dependant manner

CCc1ccc(CCOc2ccc(CC3SC(=O)NC3=O)cc2)nc1 (stereo not drawn) [Pio, pioglitazone]
inhibition of TGF-β1 mediated HAS1 mRNA induction [8]: about 50% | inhibition of TGF-β1 mediated HAS2 mRNA induction [8]: about 50% | cell viability (XTT) [9]: no significant difference in cell viability among treatment conditions | inhibition at 10 µM ([7]; read-out: inhibition of TGF-β1 mediated pericellular accumulation of HA): 40 ± 2.2% | inhibition at 10 µM ([7]; read-out: inhibition of TGF-β1 mediated secretion of HA): 52 ± 2.2% | cell number after treatment [7]: No significant changes in cell number

O=C(O)CCn1c2c(c3ccccc31)C[C@H](NS(=O)(=O)c1ccc(F)cc1)CC2 [Ramatroban]
basal HA levels [4]: neither MK-0524 (MK) nor Ramatroban (RAM) influenced basal HA levels | PGD2- and PGJ2-induced HA production ([4]; 18 hours): unable to prevent the induction of HA by PGD2 or PGJ2

CN(CCOc1ccc(CC2SC(=O)NC2=O)cc1)c1ccccn1 (stereo not drawn) [Rosi, rosiglitazone]
cell viability (XTT) [9]: no significant difference in cell viability among treatment conditions | cell number after treatment [7]: No significant changes in cell number

Reference: patent US9320723B2, “Methods of treating thyroid eye disease” (University of Rochester, priority 2010, dated 2016)
